Converted amounts (≈) assume the structure as drawn.
Key:
[1] = Half life in monkey S9 fraction; assay type: ADME, Macaca mulatta; settings: rhesus monkey
[2] = Clearance in Beagle dog at 1 mg/kg, iv and 5 mg/kg, po administered as suspension by LC-MS/MS analysis; assay type: ADME, organism-based, Canis lupus familiaris; settings: in vivo
[3] = Lipophilicity, log D of the compound at pH 7.4 by chromatographic analysis; assay type: physicochemical; settings: buffer
[4] = Fraction unbound in Beagle dog plasma at 1 mg/kg, iv and 5 mg/kg, po administered as suspension by equilibrium dialysis technique; assay type: ADME, organism-based, Canis lupus familiaris
[5] = Clearance in Sprague-Dawley rat at 1 mg/kg, iv and 5 mg/kg, po administered as suspension by LC-MS/MS analysis; assay type: ADME, organism-based; settings: in vivo
[6] = Half life in dog S9 fraction; assay type: ADME, Canis lupus familiaris
[7] = Plasma concentration in rat at 5 mg/kg, po after 24 hrs; assay type: ADME, organism-based; parameters: dose 5 mg/kg, route oral
[8] = Fraction unbound in human plasma; assay type: ADME, cell-free
[9] = Oral bioavailability in Sprague-Dawley rat at 5 mg/kg administered as suspension by LC-MS/MS analysis; assay type: ADME, organism-based; settings: in vivo
[10] = Half life in human hepatocytes; assay type: ADME, cell-based, Hepatocyte
[11] = Apparent permeability in MDCK cells; assay type: ADME, cell-based, Canis lupus familiaris; settings: dog
[12] = Oral bioavailability in Beagle dog at 5 mg/kg administered as suspension by LC-MS/MS analysis; assay type: ADME, organism-based, Canis lupus familiaris; settings: in vivo
[13] = Half life in cynomolgus monkey at 1 mg/kg, iv and 5 mg/kg, po administered as suspension by LC-MS/MS analysis; assay type: ADME, organism-based, Macaca fascicularis; settings: in vivo
[14] = Half life in Sprague-Dawley rat at 1 mg/kg, iv and 5 mg/kg, po administered as suspension by LC-MS/MS analysis; assay type: ADME, organism-based; settings: in vivo
[15] = Fraction unbound in Sprague-Dawley rat plasma at 1 mg/kg, iv and 5 mg/kg, po administered as suspension by equilibrium dialysis technique; assay type: ADME, organism-based
[16] = Clearance in cynomolgus monkey at 1 mg/kg, iv and 5 mg/kg, po administered as suspension by LC-MS/MS analysis; assay type: ADME, organism-based, Macaca fascicularis; settings: in vivo
[17] = Oral bioavailability in cynomolgus monkey at 5 mg/kg administered as suspension by LC-MS/MS analysis; assay type: ADME, organism-based, Macaca fascicularis; settings: in vivo
[18] = Volume of distribution at steady state in Beagle dog at 1 mg/kg, iv and 5 mg/kg, po administered as suspension by LC-MS/MS analysis; assay type: ADME, organism-based, Canis lupus familiaris; settings: in vivo, read-out: Vdss
[19] = Volume of distribution at steady state in Sprague-Dawley rat at 1 mg/kg, iv and 5 mg/kg, po administered as suspension by LC-MS/MS analysis; assay type: ADME, organism-based; settings: in vivo, read-out: Vdss
[20] = Volume of distribution at steady state in cynomolgus monkey at 1 mg/kg, iv and 5 mg/kg, po administered as suspension by LC-MS/MS analysis; assay type: ADME, organism-based, Macaca fascicularis; settings: in vivo, read-out: Vdss
[21] = Half life in rat S9 fraction; assay type: ADME
[22] = Fraction unbound in cynomolgus monkey plasma at 1 mg/kg, iv and 5 mg/kg, po administered as suspension by equilibrium dialysis technique; assay type: ADME, organism-based, Macaca fascicularis
[23] = Half life in rat hepatocytes; assay type: ADME, cell-based, Hepatocyte
[24] = Half life in human S9 fraction; assay type: ADME
[25] = Solubility of the compound in simulated gastrointestinal fluid; assay type: physicochemical
[26] = Half life in Beagle dog at 1 mg/kg, iv and 5 mg/kg, po administered as suspension by LC-MS/MS analysis; assay type: ADME, organism-based, Canis lupus familiaris; settings: in vivo
[27] = Clearance in Beagle dog at 1 mg/kg, iv and 5 mg/kg, po administered as capsule by LC-MS/MS analysis; assay type: ADME, organism-based, Canis lupus familiaris; settings: in vivo
[28] = Volume of distribution at steady state in cynomolgus monkey at 1 mg/kg, iv and 5 mg/kg, po administered as capsule by LC-MS/MS analysis; assay type: ADME, organism-based, Macaca fascicularis; settings: in vivo, read-out: Vdss
[29] = test system: Human immunodeficiency virus; test: Antiviral activity against Human immunodeficiency virus harboring integrase Q148K mutant infected in human HeLa cells expressing CD4 after 2 days by beta galactosidase assay relative to wild type HIV; assay type: functional
[30] = Half life in Beagle dog at 1 mg/kg, iv and 5 mg/kg, po administered as capsule by LC-MS/MS analysis; assay type: ADME, organism-based, Canis lupus familiaris; settings: in vivo
[31] = Half life in Sprague-Dawley rat at 1 mg/kg, iv and 5 mg/kg, po administered as capsule by LC-MS/MS analysis; assay type: ADME, organism-based; settings: in vivo
[32] = test system: Human immunodeficiency virus; test: Antiviral activity against pseudo Human immunodeficiency virus infected in HEK293T cells after 2 days in presence of human serum albumin; assay type: functional, organism-based; settings: Human immunodeficiency virus 1, HEK-293T, 48 h
[33] = test system: Human immunodeficiency virus 1; test: Antiviral activity against Human immunodeficiency virus 1 3B infected in human MT4 cells after 4 to 5 days by bioluminescence assay; assay type: functional, organism-based
[34] = test system: Human immunodeficiency virus 1; test: Antiviral activity against Human immunodeficiency virus 1 Ba-L infected human PBMC after 7 days by [methyl-3H]dTTP incorporation assay; assay type: functional, organism-based; settings: 168 h
[35] = Fraction unbound in Sprague-Dawley rat plasma at 1 mg/kg, iv and 5 mg/kg, po administered as capsule by equilibrium dialysis technique; assay type: ADME, organism-based
[36] = Oral bioavailability in cynomolgus monkey at 5 mg/kg administered as capsule by LC-MS/MS analysis; assay type: ADME, organism-based, Macaca fascicularis; settings: in vivo
[37] = Fraction unbound in Beagle dog plasma at 1 mg/kg, iv and 5 mg/kg, po administered as capsule by equilibrium dialysis technique; assay type: ADME, organism-based, Canis lupus familiaris
[38] = Fraction unbound in cynomolgus monkey plasma at 1 mg/kg, iv and 5 mg/kg, po administered as capsule by equilibrium dialysis technique; assay type: ADME, organism-based, Macaca fascicularis
[39] = test system: Human immunodeficiency virus 1; test: Antiviral activity against Human immunodeficiency virus 1 3B infected in human MT4 cells after 4 to 5 days by bioluminescence assay in presence of human serum relative to control; assay type: functional
[40] = test system: Human immunodeficiency virus; test: Antiviral activity against pseudo Human immunodeficiency virus infected in HEK293T cells after 2 days; assay type: functional, organism-based; settings: Human immunodeficiency virus 1, HEK-293T, 48 h
[41] = Oral bioavailability in Beagle dog at 5 mg/kg administered as capsule by LC-MS/MS analysis; assay type: ADME, organism-based, Canis lupus familiaris; settings: in vivo
[42] = test system: Human immunodeficiency virus; test: Ratio of IC50 for pseudo Human immunodeficiency virus to IC50 for pseudo Human immunodeficiency virus in presence of human serum albumin; assay type: functional
[43] = Ratio of plasma concentration in rat to IC90 for pseudo Human immunodeficiency virus; assay type: ADME, cell-free
[44] = biological target: Human immunodeficiency virus type 1 integrase (Human immunodeficiency virus 1, UniProt Q7ZJM1); test: Inhibition of HIV-1 integrase strand transfer activity using [3H]-DNA as substrate preincubated for 60 mins prior to substrate addition measured after 25 to 45 mins
[45] = Volume of distribution at steady state in Beagle dog at 1 mg/kg, iv and 5 mg/kg, po administered as capsule by LC-MS/MS analysis; assay type: ADME, organism-based, Canis lupus familiaris; settings: in vivo, read-out: Vdss
[46] = Half life in cynomolgus monkey at 1 mg/kg, iv and 5 mg/kg, po administered as capsule by LC-MS/MS analysis; assay type: ADME, organism-based, Macaca fascicularis; settings: in vivo
[47] = Clearance in cynomolgus monkey at 1 mg/kg, iv and 5 mg/kg, po administered as capsule by LC-MS/MS analysis; assay type: ADME, organism-based, Macaca fascicularis; settings: in vivo

Chain of Human immunodeficiency virus type 1 integrase (Q7ZJM1 whole entry): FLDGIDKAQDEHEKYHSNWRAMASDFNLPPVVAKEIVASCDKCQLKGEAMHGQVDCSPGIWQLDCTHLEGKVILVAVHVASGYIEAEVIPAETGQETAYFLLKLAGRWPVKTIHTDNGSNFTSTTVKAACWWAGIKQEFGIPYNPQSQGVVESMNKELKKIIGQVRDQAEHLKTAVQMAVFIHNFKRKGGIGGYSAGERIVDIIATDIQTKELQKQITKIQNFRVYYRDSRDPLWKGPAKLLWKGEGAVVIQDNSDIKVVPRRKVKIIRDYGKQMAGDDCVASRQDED

C[C@@H]1CCO[C@H]2Cn3cc(C(=O)NCc4ccc(F)cc4F)c(=O)c([O-])c3C(=O)N12.[Na+] [DOLUTEGRAVIR SODIUM]
half-life [1]: > 3 h
clearance [2]: 2.2 mL/min/kg
chromatographic logD [3]: 3.67
fraction unbound [4]: 0.046
clearance [5]: 0.23 mL/min/kg
half-life [6]: > 3 h
concentration at 24 h [7]: 908 ng/mL
fraction unbound [8]: 0.007
bioavailability [9]: 34%
half-life [10]: > 3.67 h
Papp [11]: 58.5 ×10⁻⁶ cm/s
bioavailability [12]: 35%
half-life [13]: 6 h
half-life [14]: 6.2 h
fraction unbound [15]: 0.001
clearance [16]: 2.1 mL/min/kg
bioavailability [17]: 25%
Vd [18]: 0.3 L/kg
Vd [19]: 0.1 L/kg
Vd [20]: 0.3 L/kg
half-life [21]: > 3 h
fraction unbound [22]: 0.009
half-life [23]: > 3.67 h
half-life [24]: > 3 h
solubility [25]: 130 µg/mL
half-life [26]: 5.2 h

C[C@H]1CO[C@@H]2Cn3cc(C(=O)NCc4ccc(F)cc4F)c(=O)c(O)c3C(=O)N12 [CABOTEGRAVIR]
half-life [1]: > 3 h
clearance [27]: 0.34 mL/min/kg
chromatographic logD [3]: 3.49
Vd [28]: 0.09 L/kg
fold change (FC) [29]: 3.9
half-life [6]: > 3 h
concentration at 24 h [7]: 9590 ng/mL
fraction unbound [8]: 0.004
half-life [30]: 5.7 h
half-life [31]: > 18 h
half-life [10]: > 3.67 h
Papp [11]: 42.5 ×10⁻⁶ cm/s
IC50 [32]: 30 nM
IC90 [32]: 0.0491 µg/mL
IC50 [33]: 1.3 nM
IC50 [34]: 0.2 nM
half-life [21]: > 3 h
fraction unbound [35]: < 0.001
bioavailability [36]: 6.2%
fraction unbound [37]: 0.007
fraction unbound [38]: 0.003
fold change (FC) [39]: 408
IC50 [40]: 0.5 nM
half-life [23]: > 3.67 h
bioavailability [41]: 8%
Ratio IC50 [42]: 60
half-life [24]: > 3 h
Ratio [43]: 0.9
solubility [25]: 42 µg/mL (≈ 104 µM)
IC50 [44]: 3 nM
Vd [45]: 0.14 L/kg
half-life [46]: 4 h
clearance [47]: 0.32 mL/min/kg
